ChEMBL document CHEMBL5260801, “Structure Based Design of Non-Natural Peptidic Macrocyclic Mcl-1 Inhibitors” (ACS Med Chem Lett, 2017)

Assays:
[1] = molecular target: Induced myeloid leukemia cell differentiation protein Mcl-1/Bcl-2-like protein 11 (Homo sapiens, UniProt Q07820); experiment: Inhibition of N-terminal GST-tagged human recombinant Mcl-1 expressed in Escherichia coli /human Bim measured for 60 mins by TR-FRET based LanthaScreen Eu-Kinase binding assay
[2] = molecular target: BCL2/BCL2L11 (Homo sapiens, UniProt P10415); experiment: Inhibition of his-tagged human recombinant Bcl-2 expressed in Escherichia coli /human Bim measured for 60 mins by TR-FRET based LanthaScreen Eu-Kinase binding assay
Chain of BCL2/BCL2L11 (P10415 whole entry): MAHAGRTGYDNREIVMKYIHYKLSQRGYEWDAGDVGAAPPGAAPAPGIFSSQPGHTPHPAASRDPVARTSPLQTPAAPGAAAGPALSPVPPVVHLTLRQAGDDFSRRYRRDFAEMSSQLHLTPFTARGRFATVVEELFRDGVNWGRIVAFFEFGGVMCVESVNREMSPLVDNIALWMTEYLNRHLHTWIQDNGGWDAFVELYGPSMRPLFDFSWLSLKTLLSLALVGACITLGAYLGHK
Chain of BCL2/BCL2L11 (O43521 whole entry, further chain): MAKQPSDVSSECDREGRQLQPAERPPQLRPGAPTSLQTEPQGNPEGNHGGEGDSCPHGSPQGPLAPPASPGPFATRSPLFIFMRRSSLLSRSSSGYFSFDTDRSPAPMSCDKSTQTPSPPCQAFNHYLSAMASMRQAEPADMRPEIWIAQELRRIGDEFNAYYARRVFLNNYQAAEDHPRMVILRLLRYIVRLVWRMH

[3] = molecular target: T1, Induced myeloid leukemia cell differentiation protein Mcl-1 (Homo sapiens, UniProt Q07820); experiment: Binding affinity to N-terminal his6-tagged human recombinant Mcl-1 expressed in Escherichia coli assessed as binding constant (Koff) by SPR analysis
T1 sequence (Q07820 whole entry): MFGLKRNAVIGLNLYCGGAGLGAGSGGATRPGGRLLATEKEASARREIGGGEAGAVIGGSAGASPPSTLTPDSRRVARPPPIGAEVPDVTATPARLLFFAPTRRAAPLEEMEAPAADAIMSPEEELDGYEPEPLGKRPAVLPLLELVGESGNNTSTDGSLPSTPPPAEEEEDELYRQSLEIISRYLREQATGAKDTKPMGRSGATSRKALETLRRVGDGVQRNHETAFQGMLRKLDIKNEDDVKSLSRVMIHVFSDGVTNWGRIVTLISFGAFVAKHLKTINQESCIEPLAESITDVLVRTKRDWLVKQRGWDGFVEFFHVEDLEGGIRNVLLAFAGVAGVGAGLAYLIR

[4] = molecular target: T1, Induced myeloid leukemia cell differentiation protein Mcl-1; experiment: Binding affinity to N-terminal his6-tagged human recombinant Mcl-1 expressed in Escherichia coli assessed as dissociation constant by SPR analysis
[5] = molecular target: T1, Induced myeloid leukemia cell differentiation protein Mcl-1; experiment: Binding affinity to N-terminal his6-tagged human recombinant Mcl-1 expressed in Escherichia coli assessed as binding constant (Kon) by SPR analysis
[6] = molecular target: Bcl-xL/BAK (Homo sapiens, UniProt Q07817); experiment: Inhibition of N-terminal GST-tagged Bcl-xL (1 to 209 residues) expressed in Escherichia coli /human Bak measured for 60 mins by TR-FRET based LanthaScreen Eu-Kinase binding assay
Chain of Bcl-xL/BAK (Q07817 whole entry, the tested form may be a part): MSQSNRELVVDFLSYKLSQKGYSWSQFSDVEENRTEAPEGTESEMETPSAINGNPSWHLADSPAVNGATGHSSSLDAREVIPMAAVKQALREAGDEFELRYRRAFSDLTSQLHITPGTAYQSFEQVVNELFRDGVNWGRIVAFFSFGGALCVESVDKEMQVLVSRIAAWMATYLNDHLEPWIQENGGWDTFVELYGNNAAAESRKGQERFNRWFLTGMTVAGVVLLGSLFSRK
Chain of Bcl-xL/BAK (Q16611 whole entry, further chain, the tested form may be a part): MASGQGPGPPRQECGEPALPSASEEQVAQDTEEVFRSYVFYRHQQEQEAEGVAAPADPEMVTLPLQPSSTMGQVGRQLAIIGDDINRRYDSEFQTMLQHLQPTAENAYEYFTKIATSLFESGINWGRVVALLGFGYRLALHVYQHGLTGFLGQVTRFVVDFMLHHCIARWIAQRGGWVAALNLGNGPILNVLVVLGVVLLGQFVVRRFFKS

[7] = tested on: MV4-11; experiment: Induction of apoptosis in human MV4-11 cells assessed as increase in caspase 3/7 activity measured after 6 hrs by Caspase-Glo 3/7 reagent based microplate reader analysis; type: functional, cell-based; details: MV4-11, 6 h

Chain of Induced myeloid leukemia cell differentiation protein Mcl-1/Bcl-2-like protein 11 (Q07820 whole entry): as the sequence (Q07820 whole entry) above
Chain of Induced myeloid leukemia cell differentiation protein Mcl-1/Bcl-2-like protein 11 (O43521 whole entry, further chain): as the sequence (O43521 whole entry, further chain) above

| Compound | IC50 [1] [nM] | IC50 [2] [nM] | K [3] [s⁻¹] | Kd [4] [nM] | K [5] | IC50 [6] [nM] | EC50 [7] [nM] |
| --- | --- | --- | --- | --- | --- | --- | --- |
| CCN[C@H](CC(=O)N[C@H]1CCc2ccccc2N(CC(=O)N[C@@H](CC(=O)NC)Cc2ccc(Cl)c(Cl)c2)C1=O)Cc1ccc(Cl)cc1 | 2100 | 1000 | – | – | – | – | – |
| CNC(=O)C[C@@H](Cc1ccc(Cl)cc1)NC(=O)CN1C(=O)[C@@H](NC(=O)C[C@@H](N)Cc2ccccc2)CCc2ccccc21 | 19500 | 1000 | – | – | – | – | – |
| CNC(=O)C[C@@H](Cc1ccc(Cl)c(-c2ccc(Cl)c(C)c2)c1)NC(=O)CN1C(=O)[C@@H](NC(=O)C[C@@H](N)Cc2ccc(Cl)cc2)CCc2ccccc21 | 1930 | > 1000 | – | – | – | – | – |
| C[C@@H]1CCN(C)C(=O)C[C@@H](Cc2ccc(Cl)c(Cl)c2)NC(=O)CN2C(=O)[C@H](CCc3ccccc32)NC(=O)C[C@H](Cc2ccc(Cl)cc2)N1 | 739 | 1000 | – | 3540 | – | – | – |
| CNC(=O)C[C@@H](Cc1ccc(Cl)cc1)NC(=O)CN1C(=O)[C@@H](NC(=O)C[C@@H](N)Cc2ccc(Cl)cc2)CCc2ccccc21 | 12500 | 1000 | – | – | – | – | – |
| CN1CCCN[C@@H](Cc2ccc(Cl)cc2)CC(=O)N[C@H]2CCc3ccccc3N(CC(=O)N[C@H](Cc3ccc(Cl)c(-c4cc5ccccc5o4)c3)CC1=O)C2=O | 1050 | > 1000 | 0.314 | 3600 | 1.6 10^5/M.s | – | – |
| CNC(=O)C[C@@H](Cc1ccc(Cl)c(Cl)c1)NC(=O)CN1C(=O)[C@@H](NC(=O)C[C@@H](N)Cc2ccc(Cl)cc2)CCc2ccccc21 | 1990 | 1000 | – | – | – | – | – |
| CN1CCCN[C@@H](Cc2ccc(Cl)cc2)CC(=O)N[C@H]2CCc3ccccc3N(CC(=O)N[C@H](Cc3ccc(Cl)c(/C=C/c4ccccc4)c3)CC1=O)C2=O | 2230 | 1000 | – | > 10000 | – | – | – |
| CN(C)C(=O)C[C@@H](Cc1ccc(Cl)c(Cl)c1)NC(=O)CN1C(=O)[C@@H](NC(=O)C[C@@H](N)Cc2ccc(Cl)cc2)CCc2ccccc21 | 2250 | 1000 | – | – | – | – | – |
| CNC(=O)C[C@@H](Cc1cccc(Cl)c1)NC(=O)CN1C(=O)[C@@H](NC(=O)C[C@@H](N)Cc2ccc(Cl)cc2)CCc2ccccc21 | 57300 | > 1000 | – | – | – | – | – |
| CNC(=O)C[C@@H](Cc1ccc(Cl)c(Cl)c1)NC(=O)CN1C(=O)[C@@H](NC(=O)C[C@@H](N)Cc2ccc(Br)cc2)CCc2ccccc21 | 1490 | 1000 | – | – | – | – | – |
| O=C1C[C@@H](Cc2ccc(Cl)c(Cl)c2)NC(=O)CN2C(=O)[C@H](CCc3ccccc32)NC(=O)C[C@H](Cc2ccc(Cl)cc2)NCCCN1 | 5210 | > 1000 | 0.158 | 4480 | 0.53 10^5/M.s | – | – |
| CN1CCCN[C@@H](Cc2ccc(S(N)(=O)=O)cc2)CC(=O)N[C@H]2CCc3ccccc3N(CC(=O)N[C@H](Cc3ccc(Cl)c(Cl)c3)CC1=O)C2=O | 558 | 1000 | – | 720 | – | – | – |
| CNC(=O)C[C@@H](Cc1ccc(Cl)c(Cc2ccccc2)c1)NC(=O)CN1C(=O)[C@@H](NC(=O)C[C@@H](N)Cc2ccc(Cl)cc2)CCc2ccccc21 | 9210 | 1000 | – | – | – | – | – |
| CN1CCCN[C@@H](Cc2ccc([S+](C)[O-])cc2)CC(=O)N[C@H]2CCc3ccccc3N(CC(=O)N[C@H](Cc3ccc(Cl)c(Cl)c3)CC1=O)C2=O (stereo not given in full) | 742 | 1000 | – | 770 | – | – | – |

Now those with a lower IC50 [1], led by results:

| IC50 [1] [nM] | IC50 [2] [nM] | K [3] [s⁻¹] | Kd [4] [nM] | K [5] | IC50 [6] [nM] | EC50 [7] [nM] | Compound |
| --- | --- | --- | --- | --- | --- | --- | --- |
| 116 | 1000 | 0.336 | 470 | 9.5 10^5/M.s | – | – | CN1CCCN[C@@H](Cc2ccc(S(C)(=O)=O)cc2)CC(=O)N[C@H]2CCc3ccccc3N(CC(=O)N[C@H](Cc3ccc(Cl)c(-c4cc5ccccc5o4)c3)CC1=O)C2=O |
| 112 | 1000 | 0.213 | 290 | 6.6 10^5/M.s | – | – | CN1CCCN[C@@H](Cc2ccc(S(C)(=O)=O)cc2)CC(=O)N[C@H]2CCc3ccccc3N(CC(=O)N[C@H](Cc3ccc(Cl)c(-c4ccc5ccccc5c4)c3)CC1=O)C2=O |
| 116 | 1000 | – | 100 | – | – | – | CN1CCCN[C@@H](Cc2ccc(S(C)(=O)=O)cc2)CC(=O)N[C@H]2CCc3ccccc3N(CC(=O)N[C@H](Cc3ccc(Cl)c(Cl)c3)CC1=O)C2=O |
| 277 | 1000 | – | 530 | – | – | – | CN1CCCCCN[C@@H](Cc2ccc(Cl)cc2)CC(=O)N[C@H]2CCc3ccccc3N(CC(=O)N[C@H](Cc3ccc(Cl)c(Cl)c3)CC1=O)C2=O |
| 122 | 1000 | 0.082 | 290 | 2.9 10^5/M.s | – | – | CN1CCCCN[C@@H](Cc2ccc(Cl)cc2)CC(=O)N[C@H]2CCc3ccccc3N(CC(=O)N[C@H](Cc3ccc(Cl)c(Cl)c3)CC1=O)C2=O |
| 193 | 1000 | – | – | – | – | – | CNC(=O)C[C@@H](Cc1ccc(Cl)c(CCc2ccccc2)c1)NC(=O)CN1C(=O)[C@@H](NC(=O)C[C@@H](N)Cc2ccc(Cl)cc2)CCc2ccccc21 |
| 510 | 1000 | 0.476 | 420 | 10.2 10^5/M.s | – | – | CN1CCCN[C@@H](Cc2ccc(S(C)(=N)=O)cc2)CC(=O)N[C@H]2CCc3ccccc3N(CC(=O)N[C@H](Cc3ccc(Cl)c(Cl)c3)CC1=O)C2=O (stereo not given in full) |
| 375 | > 1000 | – | 1200 | – | – | – | CN1CCCN[C@@H](Cc2ccc(S(C)(=O)=O)cc2)CC(=O)N[C@H]2CCc3ccccc3N(CC(=O)N[C@H](Cc3ccc(Cl)c(/C=C/c4ccccc4)c3)CC1=O)C2=O |
| 48 | 1000 | – | 120 | – | – | – | C[C@H]1CCN(C)C(=O)C[C@@H](Cc2ccc(Cl)c(Cl)c2)NC(=O)CN2C(=O)[C@H](CCc3ccccc32)NC(=O)C[C@H](Cc2ccc(Cl)cc2)N1 |
| < 3 | 5500 | 0.066 | 20 | 33 10^5/M.s | > 99000 | 3780 | CN1CCCN[C@@H](Cc2ccc(S(C)(=O)=O)cc2)CC(=O)N[C@H]2CCc3ccccc3N(CC(=O)N[C@H](Cc3ccc(Cl)c(CCc4ccccc4)c3)CC1=O)C2=O |
| 45 | 1000 | 0.073 | 340 | 3.7 10^5/M.s | – | – | CN1CCCN[C@@H](Cc2ccc(Cl)cc2)CC(=O)N[C@H]2CCc3ccccc3N(CC(=O)N[C@H](Cc3ccc(Cl)c(CCc4ccccc4)c3)CC1=O)C2=O |
| 133 | 1000 | – | – | – | – | – | CNC(=O)C[C@@H](Cc1ccc(Cl)c(CCc2ccccc2)c1)NC(=O)CN1C(=O)[C@@H](NC(=O)C[C@@H](N)Cc2ccc(S(C)(=O)=O)cc2)CCc2ccccc21 |
| 47 | 1000 | – | – | – | – | – | CN1CCCN[C@@H](Cc2ccc(S(C)(=O)=O)cc2)CC(=O)N[C@H]2CCc3ccccc3N(CC(=O)N[C@H](Cc3ccc(Cl)c(C#Cc4ccccc4)c3)CC1=O)C2=O |
| 155 | 1000 | 0.212 | 370 | 7.9 10^5/M.s | – | – | CN1CCCN[C@@H](Cc2ccc(Cl)cc2)CC(=O)N[C@H]2CCc3ccccc3N(CC(=O)N[C@H](Cc3ccc(Cl)c(Cl)c3)CC1=O)C2=O |
